Test results as given in the supplement of paper PMC11208160.

Assay: recombinant barcode read abundance after kanamycin selection (control-corrected) (log10(CPM+1)); higher = more efficient recombination; sequences stand for … in AGTGCAGAGAAAATCGGCCAGTTTTCTCTGCCTGCAGTCCGCATGCCGT…AGATTTATGCAGCGGACTGCCTTTCTCCCAAAGTGATAAACCGGACAGTATCATGGACCGGTTTTCCCGGTAATCCGTATTTGCAAGGTTGGTTTCACT; site = the 11-nt target
Outline: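 Two replicates per condition were plated: chloramphenicol/ampicillin LB agar for the control, and chloramphenicol/ampicillin/kanamycin with 0.1 mM IPTG for selection. The pooled E. coli screen behind them paired targets with IS621 bridge RNA target-binding loops. Recombination efficiency is expressed from averaged, control-corrected barcode counts per million at recombinant junctions, as log10(CPM+1).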
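Further: IS621 recombinase and bridge RNA in Escherichia coli cells.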

| Sequence | recombinant barcode read abundance (log10) |
| --- | --- |
| CGATTAACTTGGGTTCTAACCTGTTGCCT (site CGATTATCTAG) | 0.0439 |
| CGCAAATCTTGGGTTCTAACCTGTTGCCT (site CGAAAATCTAG) | 0.0245 |
| CGCAAATCTTGGGTTCTAACCTGTTGCCT (site CGCAAATCTAG) | 0.0815 |
| CGCAAATCTTGGGTTCTAACCTGTTGCCT (site CGGAAATCTAG) | 0.0907 |
| CGCAAATCTTGGGTTCTAACCTGTTGCCT (site CGTAAATCTAG) | 0.166 |
| CGCCACCCTTGGGTTCTAACCTGTTGCCT (site CGCCACCCTAG) | 0.165 |
| CGCCACCCTTGGGTTCTAACCTGTTGCCT (site CTGCACCCTAG) | 0.0944 |
| CGCCCGCCTTGGGTTCTAACCTGTTGCCT (site AGCCCGCCTAG) | 0.165 |
| CGCCCGCCTTGGGTTCTAACCTGTTGCCT (site CGCCCGCCTAG) | 0.0631 |
| CGCCCGCCTTGGGTTCTAACCTGTTGCCT (site GGCCCGCCTAG) | 0.109 |
| CGCCCGCCTTGGGTTCTAACCTGTTGCCT (site TGCCCGCCTAG) | 0.0262 |
| CGCCCTACTTGGGTTCTAACCTGTTGCTT (site CGCCCTACTAA) | 0.311 |
| CGCCCTACTTGGGTTCTAACCTGTTGCTT (site CGCCTAACTAA) | 0.491 |
| CGCCTAACTTGGGTTCTAACCTGTTGCTT (site CGCCCTACTAA) | 0.0705 |
| CGCCTAACTTGGGTTCTAACCTGTTGCTT (site CGCCTAACTAA) | 0.126 |
| CGCCTCCCTTGGGTTCTAACCTGTTGCAT (site CGCCTCCCTAT) | 0.159 |
| CGCCTCCCTTGGGTTCTAACCTGTTGCAT (site GGCCTCCCTAT) | 0 |
| CGCGATCCTTGGGTTCTAACCTGTTGCGT (site AGCGACCCTAC) | 0.0431 |
| CGCGATCCTTGGGTTCTAACCTGTTGCGT (site CGCGATCCTAC) | 0.834 |
| CGCGCTCCTTGGGTTCTAACCTGTTGCCT (site CGCGATCCTAG) | 0.0445 |
| CGCGCTCCTTGGGTTCTAACCTGTTGCCT (site CGCGCTCCTAG) | 0.245 |
| CGCGCTCCTTGGGTTCTAACCTGTTGCCT (site CGCGGTCCTAG) | 0.0941 |

| Sequence | recombinant barcode read abundance (log10) |
| --- | --- |
| CGCGCTCCTTGGGTTCTAACCTGTTGCCT (site CGCGTTCCTAG) | 0.0658 |
| CGCTTACCTTGGGTTCTAACCTGTTGCCT (site AGCTTACCTAG) | 0.143 |
| CGCTTACCTTGGGTTCTAACCTGTTGCCT (site CGCTTACCTAG) | 0.0899 |
| CGCTTACCTTGGGTTCTAACCTGTTGCCT (site GGCTTACCTAG) | 0.0208 |
| CGCTTACCTTGGGTTCTAACCTGTTGCCT (site TGCTTACCTAG) | 0.192 |
| CGCTTGTCTTGGGTTCTAACCTGTTGCCG (site CGCTTGTCTCG) | 0.134 |
| CGCTTGTCTTGGGTTCTAACCTGTTGCCG (site CTCTTGTCTTG) | 0.0615 |
| CGGACGCCTTGGGTTCTAACCTGTTGCCT (site CGGACGACTAG) | 0.352 |
| CGGACGCCTTGGGTTCTAACCTGTTGCCT (site CGGACGCCTAG) | 0.892 |
| CGGACGCCTTGGGTTCTAACCTGTTGCCT (site CGGACGGCTAG) | 1.51 |
| CGGACGCCTTGGGTTCTAACCTGTTGCCT (site CGGACGTCTAG) | 0.25 |
| CGGACTTCTTGGGTTCTAACCTGTTGCCT (site CAGACTTCTAG) | 0.182 |
| CGGACTTCTTGGGTTCTAACCTGTTGCCT (site CCGACTTCTAG) | 0.049 |
| CGGACTTCTTGGGTTCTAACCTGTTGCCT (site CGGACTTCTAG) | 0.0521 |
| CGGACTTCTTGGGTTCTAACCTGTTGCCT (site CTGACTTCTAG) | 0.0412 |
| CGGAGAGCTTGGGTTCTAACCTGTTGCCT (site CAGAGAGCTAG) | 0.402 |
| CGGAGAGCTTGGGTTCTAACCTGTTGCCT (site CCGAGAGCTAG) | 0.433 |
| CGGAGAGCTTGGGTTCTAACCTGTTGCCT (site CGGAGAGCTAG) | 1.83 |
| CGGAGAGCTTGGGTTCTAACCTGTTGCCT (site CTGAGAGCTAG) | 0 |
| CGGAGCCCTTGGGTTCTAACCTGTTGCCT (site CAAAGCCCTAG) | 0.0117 |
| CGGAGCCCTTGGGTTCTAACCTGTTGCCT (site CGGAGCCCTAG) | 1.27 |
| CGGATCCCTTGGGTTCTAACCTGTTGCCT (site CAGATCCCTAG) | 0.555 |

| Sequence | recombinant barcode read abundance (log10) |
| --- | --- |
| CGGATCCCTTGGGTTCTAACCTGTTGCCT (site CCGATCCCTAG) | 0.159 |
| CGGATCCCTTGGGTTCTAACCTGTTGCCT (site CGGATCCCTAG) | 1.39 |
| CGGATCCCTTGGGTTCTAACCTGTTGCCT (site CTGATCCCTAG) | 0.284 |
| CGGCGTACTTGGGTTCTAACCTGTTGCCT (site CGACGTACTAG) | 0.14 |
| CGGCGTACTTGGGTTCTAACCTGTTGCCT (site CGCCGTACTAG) | 0.103 |
| CGGCGTACTTGGGTTCTAACCTGTTGCCT (site CGGCGTACTAG) | 0.959 |
| CGGCGTACTTGGGTTCTAACCTGTTGCCT (site CGTCGTACTAG) | 0.069 |
| CGGCGTCCTTGGGTTCTAACCTGTTGCCT (site CGGCGTCCTAG) | 1.24 |
| CGGCGTCCTTGGGTTCTAACCTGTTGCCT (site CGGCGTCCTCG) | 0.0739 |
| CGGCGTCCTTGGGTTCTAACCTGTTGCTA (site CGGAGTCCTTA) | 0.0265 |
| CGGCGTCCTTGGGTTCTAACCTGTTGCTA (site CGGCGTCCTTA) | 0.452 |
| CGGCGTCCTTGGGTTCTAACCTGTTGCTA (site CGGGGTCCTTA) | 0.113 |
| CGGCGTCCTTGGGTTCTAACCTGTTGCTA (site CGGTGTCCTTA) | 0.42 |
| CGGCTACCTTGGGTTCTAACCTGTTGCCT (site CAGCTACCTAG) | 0.194 |
| CGGCTACCTTGGGTTCTAACCTGTTGCCT (site CCGCTACCTAG) | 0.13 |
| CGGCTACCTTGGGTTCTAACCTGTTGCCT (site CGGCTACCTAG) | 1.96 |
| CGGCTACCTTGGGTTCTAACCTGTTGCCT (site CTGCTACCTAG) | 0.429 |
| CGGCTCACTTGGGTTCTAACCTGTTGCTA (site CGGCACACTAA) | 0.0598 |
| CGGCTCACTTGGGTTCTAACCTGTTGCTA (site CGGCTCACTTA) | 2.31 |
| CGGCTGACTTGGGTTCTAACCTGTTGCCT (site CGGCTCACTAG) | 0.446 |
| CGGCTGACTTGGGTTCTAACCTGTTGCCT (site CGGCTGACTAG) | 1.46 |
| CGGGCCTCTTGGGTTCTAACCTGTTGCTA (site CGGGCCTCTAA) | 0.185 |

| Sequence | recombinant barcode read abundance (log10) |
| --- | --- |
| CGGGCCTCTTGGGTTCTAACCTGTTGCTA (site CGGGCCTCTCA) | 0 |
| CGGGCCTCTTGGGTTCTAACCTGTTGCTA (site CGGGCCTCTGA) | 1.27 |
| CGGGCCTCTTGGGTTCTAACCTGTTGCTA (site CGGGCCTCTTA) | 2.38 |
| CGGGCCTCTTGGGTTCTAACCTGTTGCTT (site CGGGCCTCTAA) | 2.03 |
| CGGGCCTCTTGGGTTCTAACCTGTTGCTT (site CGGGCCTCTCA) | 0.148 |
| CGGGCCTCTTGGGTTCTAACCTGTTGCTT (site CGGGCCTCTGA) | 0.469 |
| CGGGCCTCTTGGGTTCTAACCTGTTGCTT (site CGGGCCTCTTA) | 0.336 |
| CGGGCGCCTTGGGTTCTAACCTGTTGCGG (site CGGCCGACTCC) | 0.0157 |
| CGGGCGCCTTGGGTTCTAACCTGTTGCGG (site CGGGCGCCTCC) | 2.14 |
| CGGGTGCCTTGGGTTCTAACCTGTTGCCT (site CAGGTGCCTAG) | 0.379 |
| CGGGTGCCTTGGGTTCTAACCTGTTGCCT (site CCGGTGCCTAG) | 0.717 |
| CGGGTGCCTTGGGTTCTAACCTGTTGCCT (site CGGGTGCCTAG) | 1.66 |
| CGGGTGCCTTGGGTTCTAACCTGTTGCCT (site CTGGTGCCTAG) | 0.0879 |
| CGGTAACCTTGGGTTCTAACCTGTTGCCT (site AGGTAACCTAG) | 0.429 |
| CGGTAACCTTGGGTTCTAACCTGTTGCCT (site CGGTAACCTAG) | 0.761 |
| CGGTAACCTTGGGTTCTAACCTGTTGCCT (site GGGTAACCTAG) | 0.185 |
| CGGTAACCTTGGGTTCTAACCTGTTGCCT (site TGGTAACCTAG) | 0.753 |
| CGGTAGTCTTGGGTTCTAACCTGTTGCTT (site CGGTAGTCTAA) | 1.41 |
| CGGTAGTCTTGGGTTCTAACCTGTTGCTT (site CGGTAGTCTCA) | 0.0659 |
| CGGTGTCCTTGGGTTCTAACCTGTTGCTA (site CGGAGTCCTTA) | 0.0633 |
